Experimental data as given in article PMC4754331, “Programming of metabolic effects in C57BL/6JxFVB mice by in utero and lactational exposure to perfluorooctanoic acid” (Archives of Toxicology, 2015).

Experiments:
ucp1 = ucp1 gene expression in brown adipose tissue (qPCR); type: in vivo, mice; conditions: males and females; 300 and 3000 µg/kg vs control; data not shown
Experimental: Some measurements included only control and one or two dose groups and could therefore not be analyzed as dose–responses. GTT was therefore evaluated by repeated-measures or nested (to account for litter covariance) two-way ANOVAs (Graphpad Prism 5.0, R) to detect differences at the different time points and between the areas under the curve (AUC). Activity measurement, ucp1 expression, WAT adipocyte size and the proxy for cell number were also tested with a nested ANOVA (R). Differences in distribution of BAT histopathology scores between experimental groups were tested for statistical significance in a two-tailed Fisher’s exact test.

C57BL/6JxFVB hybrid mice = assay: Histopathology of liver; type: in vivo; conditions: for Liver nuclear dysmorphology: count of individuals with Grade 0 / Liver nuclear dysmorphology: count of individuals with Grades 1, 2: p = 0.06 vs control
[1] = males, 300 and 3000 µg PFOA/kg body weight/day combined, p = 0.07 vs control

O=C(O)C(F)(F)C(F)(F)C(F)(F)C(F)(F)C(F)(F)C(F)(F)C(F)(F)F [PFOA, Perfluorooctanoic acid]
ucp1 expression in brown adipose tissue (ucp1): did not show an effect
Liver eosinophilic alteration: count of individuals with Grades 0, 1 (C57BL/6JxFVB hybrid mice; females, 300 and 3000 combined): 11
Liver eosinophilic alteration: count of individuals with Grades 2, 3 (C57BL/6JxFVB hybrid mice; females, 300 and 3000 combined): 8
Liver fatty change: count of individuals with Grade 0 (C57BL/6JxFVB hybrid mice; females, 300 and 3000 combined): 17
Liver fatty change: count of individuals with Grades 1, 2, 3 (C57BL/6JxFVB hybrid mice; females, 300 and 3000 combined): 2
Liver nuclear dysmorphology: count of individuals with Grade 0 (C57BL/6JxFVB hybrid mice; females, 300 and 3000 combined): 12
Liver nuclear dysmorphology: count of individuals with Grades 1, 2 (C57BL/6JxFVB hybrid mice; females, 300 and 3000 combined): 7
Liver eosinophilic alteration: count of individuals with Grade 0 (C57BL/6JxFVB hybrid mice; [1]): 14
Liver eosinophilic alteration: count of individuals with Grades 1, 2 (C57BL/6JxFVB hybrid mice; [1]): 6
Liver fatty change: count of individuals with Grade 0 (C57BL/6JxFVB hybrid mice; males, 300 and 3000 combined): 16
Liver fatty change: count of individuals with Grades 1, 2, 3, 4 (C57BL/6JxFVB hybrid mice; males, 300 and 3000 combined): 4
Liver nuclear dysmorphology: count of individuals with Grade 0 (C57BL/6JxFVB hybrid mice; males, 300 and 3000 combined): 13
Liver nuclear dysmorphology: count of individuals with Grades 1, 2 (C57BL/6JxFVB hybrid mice; males, 300 and 3000 combined): 7
